# US12653776B2, “Methods of treatment of cancer by continuous infusion of coenzyme Q10” (priority 2013, dated 2026)
# Experiments:
# [1] = Phase 1a/b study, 96-hour continuous IV infusion: pharmacokinetics; type: in vivo, human
# Procedure: (§1) Blood samples for pharmacokinetic and pharmacodynamic analyses are collected during each cycle of monotherapy and combination therapy. Urine samples for determination of coenzyme Q10 renal clearance are collected only during Cycle 1 of monotherapy and combination therapy. A PET scan is performed within 2 weeks prior to starting treatment and after 2 weeks of coenzyme Q10 treatment, and 8 weeks of treatment on Arm 1 or 10 weeks of treatment on Arm 2. Core biopsies (2-3) are performed at the time of baseline and Week 2 PET scan for patients who opt-in to participate in these exploratory studies.
# solid tumors = assay: Phase 1a/b study, 96-hour continuous IV infusion: tumor response and PET; type: in vivo, human
# Procedure: Assessments of the antitumor activity of coenzyme Q10 is performed at the end of Cycle 2 and every 2 cycles thereafter using standard techniques such as computerized tomography (CT) or magnetic resonance imaging (MRI) for patients with measurable disease. Response is evaluated using Response Evaluation Criteria in Solid Tumors (RECIST) v1.1. Patients who experience no unacceptable toxicity or disease progression, may receive additional 28-day cycles for up to 1 year on Arm 1 or 2. Patients on Arm 1 who progress may elect to continue coenzyme Q10 treatment in combination with gemcitabine, 5-FU, or docetaxel at the treating physician's discretion. Once a dose level of coenzyme Q10 monotherapy is evaluated and the CRC determines it safe to escalate to the next dose level, Cohort 1 of Treatment Arm 2 of coenzyme Q10 in combination with chemotherapy will open to accrual. Cohort 1 of Arm 2 patients are enrolled onto one of 3 chemotherapies, gemcitabine, 5-FU, or docetaxel. Cycle 1 of combination therapy (Arm 2) is 6 weeks in duration for patients with coenzyme Q10 administered twice weekly on Mondays and Wednesday for 6 weeks and chemotherapy administered on Fridays, Days 19, 26 and 33. Cycles 2-12 are 4 weeks in duration with coenzyme Q10 administered twice weekly on Mondays and Wednesdays for 4 weeks and chemotherapy administered on Fridays, Days 5, 12 and 19. Dose limiting toxicities are assessed during Cycle 1. Response is assessed after Cycle 2 (10 weeks) and responders who continue onto Cycles 2-12 are assessed every 2 cycles (8 weeks). […] Patients on Arm 2 who progress on one type of chemotherapy may not switch to one of the other chemotherapy agents in combination with coenzyme Q10. However, if the chemotherapy component (i.e., 5-FU, gemcitabine, or docetaxel) of combination therapy is discontinued due to chemotherapy-related toxicity, patients may continue to receive coenzyme Q10 as monotherapy.
# as §1
# [2] = system: H522 human lung cancer cells; assay: H522 human lung cancer rat model, survival; type: in vivo, rats
# Procedure: The effect of coenzyme Q10 dosing regimens was further investigated in rats implanted with H522 human lung cancer cells. Rats were randomized to receive either no treatment (control), continuous infusion with coenzyme Q10, chemotherapy, or a combination of coenzyme Q10 and chemotherapy. The dose of coenzyme Q10 was 50 mg/kg per day over 24 hours and the concentration was 4%. The chemotherapy was repeated on a three week cycle as follows: week 1: I.V. Cyclophosphamide, 35 mg/kg, 1×/wk and I.V. Doxorubicin 2.5 mg/kg, 3×/wk; Weeks 2-3: no treatment.
# [3] = system: liver chloromas (MIA C51 clone); assay: Liver chloroma rat model, survival; type: in vivo, rats
# From the text: The effect of dosing schedule of coenzyme Q10 was also investigated in rats bearing liver or lung chloromas. Rats were transplanted with liver or lung clones of malignant chloromas derived from a stable myelogenous leukemia (chloroleukemia) cell line, MIA C51 (see. e.g., Jimenez and Yunis (1987) Science 238: 1278-1280). The clones have been selected to home to and form tumors in the liver or lungs, respectively. Rats were randomized to receive either no treatment, injection 3 times a day with 40 mg/mL (4%) coenzyme Q10, or continuous infusion of 40 mg/mL (4%) coenzyme Q10 via an implanted pump, to deliver for each regimen a total dose of 50 mg/kg body weight per day. […] For example, at Day 189 in the liver chloroma model, 45 of 50 rats were alive in the continuous infusion treatment group compared with 26 of 50 rats alive in the injection treatment group. All control animals were dead at Day 30.
# advanced solid tumors = assay: First-in-human Phase 1 study (CTL0510), 4-hour IV infusion 3 times weekly: tumor response; type: in vivo
# Procedure: The first-in-human Phase 1 study with coenzyme Q10 nanosuspension (40 mg/ml) was conducted in 50 patients with advanced solid tumors. The objectives were to assess the safety, maximum tolerated dose, PK and PD of coenzyme Q10, specifically a 4% coenzyme Q10 nanosuspension formulation (as described in WO 2011/112900, the entire contents of which are expressly incorporated herein by reference), administered as a 4-hour IV infusion 3 times weekly in 28-day cycles. Nine dose levels were explored ranting from 5.62 to 139 mg/kg. Plasma concentration profiles and PK parameters were determined from blood samples collected pre-dose and at intervals to 48 hours post-dose.
# [4] = system: acute myeloid leukemia (KG1) cells; assay: Acute myeloid leukemia (KG1) mouse model, survival; type: in vivo, mice
# Procedure: Human acute erythro-leukemia (K562) and acute myeloid leukemia (KG1) cells (1×10^6) were injected intraperitoneally in immune-compromised mice. Engraftment was confirmed by complete blood counts, presence of anemia, and clinical assessment of animal behavior.
# The mice (total n=120 for each model respectively) were randomized into four (n=30/group) treatment groups. Each treatment regimen was administered in a four week cycle with three weeks of treatment, one week off: • 1. Untreated (control) • 2. Coenzyme Q10 (4%, administered at 75 mg/kg, once/day by continuous infusion) • 3. Chemotherapy (cytarabine/AraC 25 mg/kg, 5×/week; and adriamycin/daunorubicin 5 mg/kg; 1×/wk) • 4. Coenzyme Q10 (4%, administered at 75 mg/kg, once/day by continuous infusion)+chemotherapy (cytarabine/AraC 25 mg/kg, 5×/week; and adriamycin/daunorubicin 5 mg/kg; 1×/wk)
# All dosings were intravenous and followed a protocol of 3 week treatment followed by 1 week rest. Leukemia was monitored by pallor and blood smears, and hone marrow smears were performed post-mortem for analysis using Wright's stain. Survival results from the study of mice with acute erythroleukemia are show in FIG. 5. Day 1 is the first day of treatment with coenzyme Q10 and/or chemotherapy.
# [5] = Patient 1, 66 mg/kg week monotherapy, end of two cycles
substance,measurement,setting,value
coenzyme Q10,increase in the intratumor concentration of Coenzyme Q11,"[1]; Patient 1, gastric adenocarcinoma, dose level 1 (66 mg/kg week)",15 fold
same,pharmacokinetics,[1]; initial tested doses,linear distribution
same,patients evaluable for efficacy showing various responses,"solid tumors; Eight out of twelve patients, after dose level 2",75%
same,multiomics tissue analysis,"solid tumors; Patient 1, 66 mg/kg week monotherapy",switch from anaerobic driven markers to oxidative phosphorylation
same,cervical lymph node metastases,solid tumors; [5],disappearance of cervical lymph node metastases
same,size of the target lesion,solid tumors; [5],minimal changes
same,decrease on PET-SUV,"solid tumors; Patient 1, gastric adenocarcinoma, 66 mg/kg week monotherapy, end of two cycles",40%
same,PET/CT response,solid tumors; Patient 1 after switch to combination arm adding weekly docetaxel,again showed metabolic responses by PET/CT
same,"Max SUV, Right iliac bone lesion","solid tumors; Patient 2, gemcitabine + coenzyme Q10 66 mg/kg, Week 10 PET, from 2.3",1.9
same,"Max SUV, Omentum lesion 2","solid tumors; Patient 2, gemcitabine + coenzyme Q10 66 mg/kg, Week 10 PET, from 3.5",2.8
same,non-target lesion response,"solid tumors; Patient 2, gemcitabine + coenzyme Q10 66 mg/kg, lesion in the abdomen",complete response in one of the non-target lesions
same,"Max SUV, Omentum lesion 1","solid tumors; Patient 2, metastatic bladder cancer, gemcitabine + coenzyme Q10 66 mg/kg, Week 10 PET, previous value 1.7",0.8
same,outcomes by RECIST criteria,solid tumors; expected at the end of the ongoing study,clinically relevant outcomes
same,antitumor activity in a variety of solid tumors,"solid tumors; gastric, pancreatic, colon, head and neck, NSCLC, mesothelioma, TN breast cancer",showed early activity at low doses
same,animal survival,[2]; continuous infusion 50 mg/kg per day combined with chemotherapy (cyclophosphamide + doxorubicin),more effective than either treatment alone
same,animal survival,"[2]; continuous infusion alone, 50 mg/kg per day over 24 hours, 4%, vs cyclophosphamide + doxorubicin",more effective than chemotherapy alone
same,survival compared to control,"[3]; both continuous infusion and injection 3 times a day, 50 mg/kg per day",significantly prolonged survival
same,rats alive at Day 189,"[3]; continuous infusion of 40 mg/mL (4%) coenzyme Q10, 50 mg/kg body weight per day",45 of 50
same,effectiveness of continuous infusion regimen,"[3]; continuous infusion vs injection 3 times a day, 50 mg/kg per day",much more effective than the injection regimen
same,rats alive at Day 189,"[3]; injection 3 times a day of 40 mg/mL (4%) coenzyme Q10, total 50 mg/kg body weight per day",26 of 50
same,progressive disease,advanced solid tumors; 15 patients,30%
same,best response stable disease,advanced solid tumors; 23 of 50 patients,46%
same,partial response,advanced solid tumors; patient with a sarcoma,One
same,survival,"[4]; coenzyme Q10 75 mg/kg/day continuous infusion + chemotherapy (cytarabine + daunorubicin) vs other groups incl. chemotherapy alone, p<0.00001",significant increase in survival
same,survival,"[4]; coenzyme Q10 alone (4%, 75 mg/kg once/day by continuous infusion) vs chemotherapy (cytarabine + daunorubicin)",improved survival compared to chemotherapy
